Experimental data taken from patent US20110144029A1, “Model Systems and Materials for the Study and Treatment of Neurodegenerative Diseases” (BOARD OF REGENTS, THE UNIVERSITY OF TEXAS SYSTEM, priority 2009, published 2011).

Key:
[1] = Live/Dead viability assay in HT-22 cell line; format: cell-based; settings: 24 h, serum-free medium
Method: (§1) Primary cultures and cell lines were treated in serum-free medium with T-peptide for 24 hours. Viability was quantified using the Live/Dead assay. * indicates p<0.05 compared with control cells that were treated with serum-free medium without peptide: (6A) Results from the analyses of cerebellar granule neurons, cortical neurons, and kidney fibroblasts cultured from rats, (6B) Results from the HT22 and HEK293 cell lines;
(§2) HT-22 and HEK293 cell culture: HT-22 cells were maintained in DMEM supplemented with 10% FCS, 50 U/ml penicillin and 50 μg/ml streptomycin. HEK293 were maintained in DMEM supplemented with 10% FCS, 50 U/ml penicillin and 50 μg/ml streptomycin. Both cell lines were treated with peptide at 70-80% confluency in serum-free media.
(§3) Cell viability quantification: Cell viability was quantified using the Live/Dead assays with a commercially available kit (Invitrogen). This is a two-color fluorescence assay utilizing two cell-permeable compounds, calcein acetoxymethyl (calcein AM) and ethidium homodimer-1 (EthD-1). […] Cell viability was also analyzed using the MTT [3-(4,5-Dimethylthiazol-2-yl)-2,5-diphenyltetrazolium bromide] assay based on the evaluation of mitochondrial function. […] Absorbance was measured spectrophotometrically at 570 nm after an overnight incubation at room temperature.

cortical neurons = assay: Live/Dead viability assay in cortical neurons; format: cell-based; settings: 24 h, serum-free medium
Method: as §1
as §3, with “(EthD-1). Live cells have intracellular esterases that convert non-fluorescent calcein AM to the intensely green fluorescent calcein, which is retained within the cytoplasm of cells. Because dead cells have damaged membranes, EthD-1 enters and is fluorescent when bound to nucleic acids. EthD-1 stains the nuclei of damaged or dead cells.” for “(EthD-1).”

kidney fibroblasts = assay: Live/Dead viability assay in primary kidney fibroblasts; format: cell-based, rat; settings: 24 h, serum-free medium
Method: as §1
Cultures of kidney fibroblasts and treatment with peptides: Kidneys were taken for 7-8 day old rats and placed in Dulbecco's Modified Eagle's Medium (DMEM). They were then diced and trypsinized for 8-12 mins. Trypsin was inactivated with trypsin inhibitor and centrifuged at 500 g for 1 min. Pellets were resuspended in DMEM and broken-up with a pasteur pipette 25 times, then centrifuged at 1000 g rpm for 1 min. […]
as §3

[2] = tested on: human embryonic kidney HEK293T cell line; assay: Live/Dead viability assay in HEK293T cell line; format: cell-based; settings: 24 h, serum-free medium
Method: as §1, §2, §3

[3] = tested on: cerebellar granule neurons; assay: Live/Dead (Red/Green) viability assay in cultured cerebellar granule neurons; format: cell-based, rat
Method: Neuronal cultures were switched to serum-free medium T-peptide, K-peptide, Core-peptide, V-peptide. VV-peptide, and T (L)-peptide. All peptides were used at 25 μM concentration. Phase contrast micrographs show appearance of the cultures after 24 h of peptide treatment. The Live/Dead viability assay was also performed. Nuclei of dead cells are stained red whereas cytoplasm of living cells are stained green. In the case of sick and dying cells, green staining is condensed;
(§4) Cerebellar granule neurons were switched to serum-free medium containing various concentrations of T-peptide, K-peptide, Core-peptide, V-peptide, VV-peptide, and T (L)-peptide. Cell viability was measured using two independent methods 24 h after peptide treatment and results are graphed. * indicates p<0.05 compared with control cells that were treated with HK: (4A) Results from Red/Green viability assay, (4B) Results from MTT assay;
Culturing and treatment of neurons: Cerebellar granule neurons were cultured from 7-8 day old rats as previously described. The neurons were plated in 24-well with poly-L-lysine coated glass coverslips at a density of ˜1 million cells/well in Basal Eagle's Medium with Earle's salts (BME) supplemented with 10% FCS, 25 mM KCl, 2 mM glutamine and […] gentamicin. To prevent mitosis of glial cells, cytosine arabinofuranoside ([…]) was added to culture 16-20 hrs after plating. Neuronal cultures were treated with peptides 6-7 days after plating. For treatment, the cultures were switched to serum-free medium containing 25 mM KCl (referred to as high potassium or HK medium). Although serum is required for proper maturation, after 5 days in culture, the neurons survive normally in the absence of serum provided depolarizing levels of KCl is added.
Cell viability quantification: Cell viability was quantified using the Live/Dead assays with a commercially available kit (Invitrogen). This is a two-color fluorescence assay utilizing two cell-permeable compounds, calcein acetoxymethyl (calcein AM) and ethidium homodimer-1 (EthD-1). Live cells have intracellular esterases that convert non-fluorescent calcein AM to the intensely green fluorescent calcein, which is retained within the cytoplasm of cells. Because dead cells have damaged membranes, EthD-1 enters and is fluorescent when bound to nucleic acids. EthD-1 stains the nuclei of damaged or dead cells. As recommended by the manufacturer, cells plated in wells with cover-slips were incubated in Live/Dead reagent (1 uM calcein AM and 4 uM EthD-1) for 30 min, and then mounted on slides. Cell viability was also analyzed using the MTT [3-(4,5-Dimethylthiazol-2-yl)-2,5-diphenyltetrazolium bromide] assay based on the evaluation of mitochondrial function. MTT assays were performed as previously described. Briefly, MTT (5 mg/ml in culture medium) was added to the culture medium and the cells incubated at 37° C. for 1 h. The assay was stopped by adding lysis buffer [20% sodium dodecyl sulfate (SDS) in 50% N,N-dimethylformamide, pH 4.7]. Absorbance was measured spectrophotometrically at 570 nm after an overnight incubation at room temperature.

adult rat brains = assay: Stereotaxic injection of peptide into adult rat brain; format: in vivo
Description: Other aggregating peptides unrelated to tau are not neurotoxic. […] To examine this issue, we synthesized two peptides, STVIIE-R9 (designated at ST peptide), previously described by Pastor et al. (Pastor et al., 2008) and another de novo peptide, SQIVYA-R9. We were able to follow the kinetics of aggregation of both peptides into amyloid forming structures using the fluorescence of thioflavin-S and we characterized their morphology by TEM. […] Peptide induces neurodegeneration in the intact rat brain. […] To examine this issue, […] of T-peptide and K-peptide was sterotaxically injected into adult rat brains. Each animal received 2 injections—on one side into the striatum, and on the other side into the hippocampus. Rats were analyzed 1 week later. […] No damage is seen in the hippocampus however.

Primary glial cells = assay: T-peptide toxicity in primary glial cells; format: cell-based; settings: data not shown
[4] = tested on: cerebellar granule neurons; assay: MTT assay in cerebellar granule neurons; format: cell-based, rat; settings: 24 h peptide treatment
Method: as §4
Culturing and treatment of neurons: Cerebellar granule neurons were cultured from 7-8 day old rats as previously described. The neurons were plated in 24-well with poly-L-lysine coated glass coverslips at a density of ˜1 million cells/well in Basal Eagle's Medium with Earle's salts (BME) supplemented with 10% FCS, 25 mM KCl, 2 mM glutamine and […] gentamicin. […]
as §3

CC[C@@H](C)[C@@H](NC(=O)[C@@H](CCC(N)=O)NC(=O)[C@H](NC(C)=O)C(C)C)C(=O)N[C@@H](C(=O)N[C@H](Cc1ccc(O)cc1)C(=O)N[C@H](CCCCN)C(=O)N[C@@H](CCCNC(=N)N)C(=O)N[C@@H](CCCNC(=N)N)C(=O)N[C@@H](CCCNC(=N)N)C(=O)N[C@@H](CCCNC(=N)N)C(=O)N[C@@H](CCCNC(=N)N)C(=O)N[C@@H](CCCNC(=N)N)C(=O)N[C@@H](CCCNC(=N)N)C(=O)N[C@@H](CCCNC(=N)N)C(=O)N[C@@H](CCCNC(=N)N)C(N)=O)C(C)C [T-peptide, Ac-vqivyk-R9—NH2]
sensitivity to T-peptide toxicity [1]: moderate level of sensitivity | sensitivity to T-peptide induced toxicity relative to cerebellar granule neurons (cortical neurons): slightly less sensitive | sensitivity to T-peptide toxicity relative to neuronal cell types (kidney fibroblasts): much less sensitive | doses up to which the cell line is resistant [2]: up to 50 μM | doses at which significant death is observable ([3]; 24 h, serum-free HK medium): ≥ 5 µM | neurotoxicity / effect on neuronal survival ([3]; 24 h peptide treatment, HK medium): induces cell death in a concentration-dependent manner | brain damage compared with K-peptide-injected rats (adult rat brains; 200 mg injected into striatum and hippocampus, analyzed 1 week later): display more damage than K-peptide-injected rats | damage in corpus callosum (adult rat brains; 200 mg injected, 1 week): shows damage and scarring | damage in hippocampus (adult rat brains; 200 mg injected, 1 week): does not seem to show much damage | damage in striatum (adult rat brains; 200 mg injected, 1 week): shows obvious damage | lateral ventricle (adult rat brains; 200 mg injected, 1 week): enlarged | sensitivity to T-peptide toxicity relative to neurons (Primary glial cells): less sensitive than neurons | MTT assay result (mitochondrial function, words) [4]: confirmed using the MTT assay
